Like-named read-outs stand apart in the source and are kept apart here. A value given as a limit tells only on which side of the number the result lay.

For one data set, the target named is T1, TRPV1 (VR1) (h) (Homo sapiens, UniProt Q8NER1).
T1 construct: host or cells: CHO
Briefly: TRPV1 (VR1) (h) antagonist effect functional assay. The conditions noted are these: human recombinant CHO cells, read-out: % Inhibition of control agonist response, TRPV1 (antagonist effect). In kind it is cell-based. The protocol:
Binding/functional studies were carried out commercially in Eurofins Laboratories (Poitiers, France) and Eurofins Panlabs Discovery Services Taiwan, Ltd. (New Taipei City, Taiwan) using testing procedures that were reported previously (for details see Table S2).
Table S2. Radioligand binding and functional assays. […]
Assays were performed commercially in Eurofins Laboratories (Poitiers, France) or Eurofins Panlabs Discovery Services Taiwan, Ltd. (New Taipei City, Taiwan).
Table S3. In vitro TRPV1 channel antagonist activity for compounds 45–66 (concentration of 100 µM). […]
Cmpd % Inhibition of control Cmpd % Inhibition of control agonist responsea agonist responsea
*Source: human recombinant CHO cells. a Results showing activity higher than 50% are considered to represent […]
variability of the sign al around the control level. Assays were performed commercially in Eurofins Laboratories

Data set [1] deals with MES-induced seizures in mice. Briefly: Maximal electroshock seizure (MES) test. The class given is in vivo. The settings on record: for responders at 100 mg/kg / ED50: Mus musculus, ip; for responders at 100 mg/kg: read-out: MES screening: number of mice protected/number of mice tested (converted); for ED50: mice, pretreatment time 0.5 h, (95% confidence limits). As for the experimental part: (§1) Adult male Albino Swiss mice that weighed between 22 and 26 g were used in the in vivo studies. They were housed under standardized housing conditions in colony cages and had free access to food as well as tap water. The animals were left to adapt under laboratory conditions for 7 days. All procedures involving animals and their care were performed in accordance with the current European Community and Polish legislation on animal experimentation.
(§2) In the initial screening studies, four mice per group were randomly assigned to each experimental group (each mouse was used only once). To evaluate the ED50 or TD50 values, 3–4 groups that consisted of eight animals were injected with various doses of tested compounds. The protective indexes (PIs) for the compounds that were investigated and reference ASDs were calculated by dividing the TD50 value, as determined in the chimney test (or rotarod test), by the respective ED50 value, as determined in the MES, scPTZ, or 6 Hz (32 mA or 44 mA) tests (PI = TD50/ED50). The PIs is a measure of the potential therapeutic window of the tested agent.
(§3) All substances were suspended in Tween 80 (1% aqueous solution) and administered i.p. as a single injection at a dose of 10 mL/kg. On each day of experimentation, fresh solutions were prepared. The results are summarized in Table S1 (screening data) and Table 2 (ED50, TD50, and PI values, see Section 3 Results and Discussion).
(§4) The detailed in vivo procedures are described elsewhere: the maximal electroshock seizure test (MES), the subcutaneous pentylenetetrazole seizure test (scPTZ), the 6 Hz psychomotor seizure model (32 mA and 44 mA), and the chimney test.
(§5) The basic animal seizure models such as the MES, 6 Hz (32 mA or 44 mA), and the scPTZ are still a standard in the discovery and development of new ASDs. In vivo screening approaches enable the identification of compounds with unidentified and potentially novel mechanisms of action besides substances with well-established pharmacodynamics. Bearing in mind the aforementioned facts, compounds 45–66 were initially studied in the MES test and in the 6 Hz seizure model (32 mA) after intraperitoneal (i.p.) administration at a screening dose of 100 mg/kg in mice at a time point of 0.5 h (the screening group consisted of four mice, the results obtained are summarized in Table S1). It should be stressed that the MES test is an experimental model of human tonic–clonic epilepsy as well as partial convulsions with or without secondary generalization, the 6 Hz model (32 mA) corresponds to human focal epilepsy, whereas the scPTZ test relates to human generalized absence or myoclonic seizures.
(§6) We also established the median toxic doses (TD50) in the chimney test 0.5 h post i.p. administration of these compounds. Both the aforementioned parameters enabled the calculation of the protective indexes (PIs).

The subject of data set [2] is scPTZ-induced seizures in mice. In words: Subcutaneous pentylenetetrazole (scPTZ) seizure test. The settings on record: 100 mg/kg i.p., 0.5 h. The class given is in vivo. As for the experimental part: as §1, §2, §3, §4, §5
Data set [3] in a line: Chimney test (acute neurological deficit). The conditions noted are these: mouse, in vivo, ip, mice. As for the experimental part: as §2, §3, §4
We also established the median toxic doses (TD50) in the chimney test 0.5 h post i.p. administration of these compounds. […]

The subject of data set [4] is 6 Hz (32 mA) seizures in mice. Briefly: 6 Hz (32 mA) psychomotor seizure model. The class given is in vivo. The settings on record: Mus musculus, ip; for responders at 100 mg/kg: 100 mg/kg i.p., 0.5 h; for ED50: mice, pretreatment time 0.5 h, (95% confidence limits). As for the experimental part: as §1, §2, §3, §4, §5, §6
Data set [5] is described as follows: PAMPA permeability (Pre-coated PAMPA Plate System Gentest). The class given is in vitro ADME. For orientation: PAMPA measures passive passage across an artificial lipid membrane.
Description: Caffeine (CFN) and norfloxacin (NFX) were used as the high- and low-permeable references, respectively.
The mark [6] stands for this setting: four mice, read-out: protection in 6 Hz (32 mA) screening.
[7] abbreviates: read-out: 6 Hz (32 mA) screening: number of mice protected/number of mice tested (converted).

T1 sequence (Q8NER1 whole entry): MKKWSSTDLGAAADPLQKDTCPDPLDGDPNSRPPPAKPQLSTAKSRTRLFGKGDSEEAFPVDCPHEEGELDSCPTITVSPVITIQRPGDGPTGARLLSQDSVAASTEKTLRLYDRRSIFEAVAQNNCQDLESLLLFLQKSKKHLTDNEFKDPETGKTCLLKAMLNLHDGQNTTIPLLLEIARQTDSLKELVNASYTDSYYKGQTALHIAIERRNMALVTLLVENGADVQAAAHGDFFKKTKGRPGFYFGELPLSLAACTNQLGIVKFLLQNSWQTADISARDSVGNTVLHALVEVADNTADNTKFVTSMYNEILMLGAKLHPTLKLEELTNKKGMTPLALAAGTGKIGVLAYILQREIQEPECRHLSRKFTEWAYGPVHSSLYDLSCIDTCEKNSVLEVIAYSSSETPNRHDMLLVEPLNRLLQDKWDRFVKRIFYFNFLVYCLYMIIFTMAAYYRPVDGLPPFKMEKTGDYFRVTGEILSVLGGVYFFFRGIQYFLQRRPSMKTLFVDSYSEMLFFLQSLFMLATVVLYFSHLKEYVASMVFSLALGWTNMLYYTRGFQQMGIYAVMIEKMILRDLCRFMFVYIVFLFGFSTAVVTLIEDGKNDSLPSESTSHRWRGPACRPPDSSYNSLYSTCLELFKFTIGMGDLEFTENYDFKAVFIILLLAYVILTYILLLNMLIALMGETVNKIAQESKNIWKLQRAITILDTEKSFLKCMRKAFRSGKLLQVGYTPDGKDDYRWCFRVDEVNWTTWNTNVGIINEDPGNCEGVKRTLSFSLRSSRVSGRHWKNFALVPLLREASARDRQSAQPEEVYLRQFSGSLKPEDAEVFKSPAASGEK

With `CC(=O)NC(C(=O)N1CCN(c2ccccc2)CC1)c1ccccc1` (stereo not drawn) [Compound 45, N-(2-oxo-1-phenyl-2-(4-phenylpiperazin-1-yl)ethyl)acetamide], on TRPV1 (VR1) (h), the inhibition (usually the change of the read-out against control, counted positive when it falls) at 100 µM is 36.1%. The “protection in MES screening” value in data set [1] (100 mg/kg i.p., 0.5 h, four mice) was 75%. Besides, the responders at 100 mg/kg was 75% in data set [1] (100 mg/kg i.p., 0.5 h); 75% in data set [4] (setting [6]); 75% in data set [4] (setting [7]). Besides, the values for the ED50 in data set [1] and in data set [4] were 125 mg/kg and 81.6 mg/kg, respectively. The “scPTZ screening: number of mice protected/number of mice tested” value in data set [2] was 0/4. Also, the TD50 at 0.5 h in data set [3] came out at 268 mg/kg.

For the molecule `Cn1c(=O)c2c(ncn2C)n(C)c1=O` [CFN, Caffeine, reference compound], the “Pe (permeability coefficient) ± SD” value in data set [5] is listed as 12.22 ± 0.94 10^−6 cm/s.

Consider `CC(=O)NC(C(=O)N1CCN(c2cccc(Cl)c2)CC1)c1ccccc1` (stereo not drawn) [Compound 47, N-(2-(4-(3-chlorophenyl)piperazin-1-yl)-2-oxo-1-phenylethyl)acetamide], for which the melting point (in general, the temperature, or range, at which the solid turns liquid) was 145.5 to 146.7 °C. Further, the inhibition at 100 µM on TRPV1 (VR1) (h) was found to be 125%. For the same molecule, the responders at 100 mg/kg in data set [1] (100 mg/kg i.p., 0.5 h) was 0%. The 50% effective dose (ED50) (in general, the dose that gives a 50% effect, or the effect in half of the subjects) in data set [1] is > 150 mg/kg. The TD50 at 0.5 h in data set [3] was > 500 mg/kg. Also, the responders at 100 mg/kg in data set [4] (setting [6]) was found to be 75%. Besides, the responders at 100 mg/kg in data set [4] (setting [7]) is 75%. The ED50 in data set [4] was found to be 88.4 mg/kg.

The values are drawn from publication PMC9221546, “New Phenylglycinamide Derivatives with Hybrid Structure as Candidates for New Broad-Spectrum Anticonvulsants” (Cells, 2022).
